From US9884065B2, “Inhibiting activity of senescent cells using a glucocorticoid” (Buck Institute for Research on Aging, priority 2011, dated 2018)

How the values were obtained:
SASP = experiment: Antibody arrays of conditioned media (120 cytokines and growth factors, SASP); type: cell-based, human; details: 500 nM corticosterone or 100 nM cortisol
Procedure: Cultures were washed and incubated in serum-free DMEM for 24 hours and the conditioned media were diluted to equivalent cell numbers using DMEM. Antibody arrays from Raybiotech (AAH-CYT-G1000-8) were used according to the manufacturer's instructions. Arrays were scanned using a GenePix 4200A Professional microarray scanner. Signal intensities were quantitated using LI-COR Odyssey software and normalized to positive controls for each sample, which were then normalized across all samples, as previously described (Freund et al., 2011, EMBO J. 30:1536-1548).
To determine whether or not, or to what extent corticosterone or cortisol suppressed the entire SASP, antibody arrays were used to interrogate the relative secretion of 120 cytokines and growth factors. Presenescent and senescent cells were incubated with 500 nM corticosterone or 100 nM cortisol (FIG. 12C).

IL-6 = IL-6 ELISA, HCA2 cells induced to senesce by oncogenic RAS or MKK6 overexpression; type: cell-based, human; details: 500 nM corticosterone, 100 nM cortisol, 6 days
Procedure: (FIG. 12A) Senescent X-irradiated with 10 Gy (Sen (XRA)) HCA2 fibroblasts were incubated in medium plus 10% serum containing the indicated concentrations of corticosterone or the highest concentration of DMSO (vehicle control). The cells were given corticosterone or DMSO immediately after irradiation and analyzed 6 days later. The cells were washed and incubated in serum-free medium without corticosterone to generate conditioned media. Conditioned media from pre-senescent (Pre) and control or corticosterone-treated Sen (XRA) cells were analyzed by ELISA for IL-6. (FIG. 12B) Cells were treated, and conditioned media were generated and analyzed as described in (FIG. 12A) except cortisol was used at the indicated concentrations. (FIG. 12C) Conditioned media were collected from presenescent (PRE) or senescent (XRA) cells that were treated with DMSO, corticosterone ([…]), or cortisol (100 nM) as described in (FIG. 12A). The conditioned media were analyzed by antibody arrays. Average signal from PRE and XRA DMSO cells was used as the baseline. Signals higher than baseline are light gray (see +1 on scale to right); signals lower than baseline are dark gray as illustrated by PRE DMSO (see −1 on scale at right). […]
Conditioned media were filtered and stored at −80° C. Cell numbers were determined in every experiment. […] Data were normalized and expressed as pg/ml/cell/24 h.

SASP factor mRNA = experiment: Real-time quantitative PCR of transcripts in HCA2 cells (normalized to tubulin); type: cell-based, human; details: 500 nM corticosterone or 100 nM cortisol; for IL-6, IL-8, MMP-3 mRNA levels: senescent X-irradiated HCA2 cells
Text: Cells (7,500/well) in 96-well plates were lysed and reverse transcribed using the Cells-To-Ct kit (Ambion).

[1] = molecular target: T1, glucocorticoid receptor (GR) (Homo sapiens, UniProt P04150); experiment: Immunostaining for GR localization in HCA2 cells; type: cell-based; details: senescent HCA2 cells; 500 nM corticosterone or 100 nM cortisol
T1 construct: endogenous in cells; host or cells: HCA2 human fibroblasts
T1 sequence (P04150 1-777): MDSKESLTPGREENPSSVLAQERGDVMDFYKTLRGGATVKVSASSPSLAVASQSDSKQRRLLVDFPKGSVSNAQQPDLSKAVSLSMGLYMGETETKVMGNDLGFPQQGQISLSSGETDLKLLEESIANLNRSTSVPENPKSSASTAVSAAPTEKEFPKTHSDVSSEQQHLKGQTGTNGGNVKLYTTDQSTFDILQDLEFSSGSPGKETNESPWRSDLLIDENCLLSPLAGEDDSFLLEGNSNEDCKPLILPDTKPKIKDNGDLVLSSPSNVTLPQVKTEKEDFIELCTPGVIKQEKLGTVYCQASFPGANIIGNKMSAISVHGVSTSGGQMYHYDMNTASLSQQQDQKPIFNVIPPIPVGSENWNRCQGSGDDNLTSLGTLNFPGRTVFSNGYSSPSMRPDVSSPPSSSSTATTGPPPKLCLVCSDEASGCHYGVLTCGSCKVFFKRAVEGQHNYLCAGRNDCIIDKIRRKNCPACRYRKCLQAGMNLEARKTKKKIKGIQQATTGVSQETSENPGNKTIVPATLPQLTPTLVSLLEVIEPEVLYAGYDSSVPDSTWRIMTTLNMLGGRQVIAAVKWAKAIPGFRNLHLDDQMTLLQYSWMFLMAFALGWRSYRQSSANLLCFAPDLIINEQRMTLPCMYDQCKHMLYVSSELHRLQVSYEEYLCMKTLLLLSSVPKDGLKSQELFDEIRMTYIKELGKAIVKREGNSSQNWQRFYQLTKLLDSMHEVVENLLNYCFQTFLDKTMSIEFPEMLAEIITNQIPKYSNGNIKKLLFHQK
Procedure: Cells were cultured in 8-well chamber slides, fixed in 4% formaldehyde (Sigma) for 10 min at 4° C. and permeabilized in PBS-0.5% Triton for 10 min in 4° C.

NF-κB = NF-κB DNA binding activity in nuclear extracts (TransAM NF-κB p65 kit); type: cell-based, human; details: senescent cells; 500 nM corticosterone or 100 nM cortisol
Procedure: Nuclear extracts were prepared using the nuclear extract kit (Active Motif), and NF-κB DNA binding was determined using the TransAM NF-κB p65 kit (Active Motif). For transactivation assays, cells infected with the NF-κB reporter-luciferase lentivirus were lysed in buffer (Promega), and luciferase activity was normalized to cell number, as described (Freund et al., 2011, EMBO J. 30:1536-1548).

[2] = tested on: T47D human breast cancer cells; experiment: Invasion assay: conditioned media from HCA2 fibroblasts stimulating T47D invasion of basement membrane; type: cell-based; details: HCA2 fibroblasts treated with corticosterone or cortisol for 10 d
Procedure: T47D human breast cancer cells (120,000 cells/well) were plated atop a layer of Matrigel in the upper chambers of Transwells (BD Biosciences). The lower chambers contained conditioned media from pre-senescent or senescent HCA2 fibroblasts treated with corticosterone or cortisol for 10 d. After 18 h, cells that migrated to the underside of the upper chamber filter were stained and counted, as described (Coppe et al., 2008, PLoS Biol. 6:2853-2868; Coppe et al., 2010, PLoS ONE 5:e9188).

Compound | secretion of growth and angiogenic factors (SASP) | secretion of pro-inflammatory cytokines and chemokines (SASP) | suppression of all components of the SASP (SASP) | suppression of senescence-associated IL-6 secretion (IL-6) | GR mRNA levels (SASP factor mRNA) | IκBα mRNA levels (SASP factor mRNA) | IL-6, IL-8, MMP-3 mRNA levels (SASP factor mRNA) | GR localization [1] | NF-κB DNA binding (NF-κB) | ability of senescent conditioned media to stimulate T47D invasiveness [2]
C[C@]12C[C@H](O)[C@H]3[C@@H](CCC4=CC(=O)CC[C@@]43C)[C@@H]1CC[C@@H]2C(=O)CO [corticosterone] | suppressed the secretion of several growth and angiogenic factors such as VEGF | strongly suppressed the secretion of several pro-inflammatory cytokines and chemokines, including IL-6, IL-8, GM-CSF and MCP-2 | Neither glucocorticoid suppressed all components of the SASP | effective | unaffected by glucocorticoid addition | no effect on IκBα mRNA levels | strongly reduced | translocated into the nucleus | significantly decreased | near-presenescent levels
C[C@]12CCC(=O)C=C1CC[C@@H]1[C@@H]2[C@@H](O)C[C@@]2(C)[C@H]1CC[C@]2(O)C(=O)CO [cortisol] | suppressed the secretion of several growth and angiogenic factors such as VEGF | strongly suppressed the secretion of several pro-inflammatory cytokines and chemokines, including IL-6, IL-8, GM-CSF and MCP-2 | Neither glucocorticoid suppressed all components of the SASP | effective | unaffected by glucocorticoid addition | no effect on IκBα mRNA levels | strongly reduced | translocated into the nucleus | significantly decreased | near-presenescent levels
